Measured values taken from publication PMC12635268, “Novel antimicrobial peptides and peptide-microbiome crosstalk in Appalachian salamander skin” (NPJ Biofilms and Microbiomes, 2025).
Read-outs that look alike come from different tables or passages of the source. Peptide text beside a SMILES is read from it.

Assays:
A. baumannii 5075 = details: Week 1 (12/6/2023)
E. faecium ATCC 19434 = assay: microbe, parasite or virus in culture
Protocol: (§1) Antimicrobial susceptibility testing of the 20 synthesized peptides against 17 bacterial strains of clinical relevance in the ESKAPEE panel was conducted using minimum inhibitory concentration (MIC) assays following the broth microdilution method outlined by Parker et al.[91]. The ESKAPEE panel is comprised of fourteen American Type Culture Collection (ATCC) strains and three Multidrug Resistant Organism Repository and Surveillance Network (MRSN) bacterial strains. These strains represent at least one drug-susceptible strain and one drug-resistant strain for each bacterium to assess drug efficacy across various resistance mechanisms. This panel is comprised of the following bacterial species and strains: E. faecium (ATCC 19434, ATCC 49224), S. aureus (ATCC 25923, ATCC 43300), K. pneumoniae (ATCC 700603, ATCC 13883, MRSN 1320), A. baumannii (ATCC 17978, ATCC 19606, MRSN 959), P. aeruginosa (ATCC 15692, ATCC 27853, MRSN 5519), E. cloacae (ATCC 13047, ATCC 35549), and E. coli (ATCC 35218, ATCC 43888). Bacteria were grown in cation-adjusted Mueller-Hinton broth (CAMHB) to achieve a final inoculum of 1 × 10⁵ CFU/mL. CAMHB is selected for its batch-to-batch reproducibility, low levels of antimicrobial inhibitors, and ability to support the growth of most bacterial pathogens.
(§2) Briefly, lyophilized peptides were dissolved in 0.2% TFA + 0.4% BSA in water to 2.56 mg/mL, ultrasonicated for 20 min, diluted 10-fold into CAMHB, and then serially diluted 2-fold in 0.02% TFA + 0.04% BSA in CAMHB and assayed at a concentration of 0.25 to 128 μg/mL. Assays were set up using the Tecan Freedom EVO liquid handling robot and software (Tecan, Switzerland) with 50 μL of bacterial inoculum and 50 μL of peptide transferred into round-bottom 96-well microtiter plates. Each plate assay was performed in duplicate and incubated at 37 °C for 20 h without agitation. Bacterial growth was assessed using the BIOMIC V3 Image Analysis system (Giles Scientific, USA) and the MIC values were determined visually according to the Clinical and Laboratory Standards Institute (CLSI) guidelines.

P. aeruginosa MRSN 5519 = assay: microbe, parasite or virus in culture
Protocol: as §1, §2

S. aureus ATCC 43300 = assay: microbe, parasite or virus in culture; details: S. aureus 43300; Week 1 (12/6/2023)
Protocol: as §1, §2

E. faecium ATCC 49224 = assay: microbe, parasite or virus in culture
Protocol: as §1, §2

K. pneumoniae ATCC 13883 = assay: microbe, parasite or virus in culture
Protocol: as §1, §2

A. baumannii ATCC 17978 = assay: microbe, parasite or virus in culture
Protocol: as §1, §2

P. aeruginosa ATCC 27853 = assay: microbe, parasite or virus in culture
Protocol: as §1, §2

E. cloacae ATCC 13047 = assay: microbe, parasite or virus in culture
Protocol: as §1, §2

S. aureus ATCC 25923 = assay: microbe, parasite or virus in culture
Protocol: as §1, §2

E. coli ATCC 43888 = assay: microbe, parasite or virus in culture
Protocol: as §1, §2

E. cloacae ATCC 35549 = assay: microbe, parasite or virus in culture
Protocol: as §1, §2

A. baumannii ATCC 19606 = assay: microbe, parasite or virus in culture
Protocol: as §1, §2

[1] = test system: K. pneumoniae ATCC 700603; assay: microbe, parasite or virus in culture; details: K. pneumoniae 700603; Week 1 (12/6/2023)
Protocol: as §1, §2

E. coli ATCC 35218 = assay: microbe, parasite or virus in culture; details: E. coli 35218; Week 1 (12/6/2023)
Protocol: as §1, §2

P. aeruginosa PA01 (Si) = assay: microbe, parasite or virus in culture; format: cell-based
From the text: Supplement 41522_2025_837_MOESM13_ESM.xlsx, sheet "Table_S13_ESKAPEE-MIC" | column: Bacterial MIC (µg/mL)

[2] = set-up: method as in Biomatik (vendor); details: 1.0 mg peptide in 1.0 ml solvent; peptides synthesized by Biomatik; ref Biomatik (vendor); cited from earlier work

N=C(N)NCCC[C@H](N)C(=O)N1CCC[C@H]1C(=O)N1CCC[C@H]1C(=O)NCC(=O)N[C@@H](Cc1ccccc1)C(=O)N[C@@H](CO)C(=O)N1CCC[C@H]1C(=O)N[C@@H](Cc1ccccc1)C(=O)O [PrMb-Eb14]
Bacterial MIC (A. baumannii 5075): >128.000 µg/mL
Bacterial MIC (K. pneumoniae 4640; K. pneumoniae 4640, Week 1 (12/6/2023)): >128.000 µg/mL
Bacterial MIC (E. faecium ATCC 19434; E. faecium 19434, Week 1 (12/6/2023)): >128.000 µg/mL
Bacterial MIC (P. aeruginosa MRSN 5519; P. aeruginosa 5519, Week 1 (12/6/2023)): >128.000 µg/mL
Bacterial MIC (S. aureus ATCC 43300): >128.000 µg/mL
Bacterial MIC (E. faecium ATCC 49224; E. faecium 49224, Week 1 (12/6/2023)): >128.000 µg/mL
Bacterial MIC (K. pneumoniae ATCC 13883; K. pneumoniae 13883, Week 1 (12/6/2023)): >128.000 µg/mL
Bacterial MIC (A. baumannii ATCC 17978; A. baumannii 17978, Week 1 (12/6/2023)): >128.000 µg/mL
Bacterial MIC (P. aeruginosa ATCC 27853; P. aeruginosa 27853, Week 1 (12/6/2023)): >128.000 µg/mL
Bacterial MIC (E. cloacae ATCC 13047; E. cloacae 13047, Week 1 (12/6/2023)): >128.000 µg/mL
Bacterial MIC (S. aureus ATCC 25923; S. aureus 25923, Week 1 (12/6/2023)): >128.000 µg/mL
Bacterial MIC (E. coli ATCC 43888; E. coli 43888, Week 1 (12/6/2023)): >128.000 µg/mL
Bacterial MIC (E. cloacae ATCC 35549; E. cloacae 35549, Week 1 (12/6/2023)): >128.000 µg/mL
Bacterial MIC (A. baumannii ATCC 19606; A. baumannii 19606, Week 1 (12/6/2023)): >128.000 µg/mL
Bacterial MIC [1]: >128.000 µg/mL
Bacterial MIC (E. coli ATCC 35218): >128.000 µg/mL
Bacterial MIC (P. aeruginosa PA01 (Si); P. aeruginosa PA01 (Si), not typical ESKAPEE strain, Week 1 (12/6/2023)): >128.000 µg/mL
Suggest solvent (solubility) [2]: 1.0mg peptide soluble in 1.0ml H2O

CC[C@H](C)[C@H](N)C(=O)N[C@@H](CC(C)C)C(=O)N[C@@H](CCCNC(=N)N)C(=O)N[C@@H](CCCCN)C(=O)N1CCC[C@H]1C(=O)N[C@@H](CCC(=O)O)C(=O)N[C@@H](CCCCN)C(=O)N[C@@H](CC(=O)O)C(=O)N[C@@H](CC(=O)O)C(=O)N[C@@H](CC(=O)O)C(=O)N[C@H](C(=O)N[C@@H](CO)C(=O)N[C@@H](CO)C(=O)N[C@@H](CCCNC(=N)N)C(=O)N[C@H](C(=O)NCC(=O)N[C@@H](Cc1ccc(O)cc1)C(=O)N[C@@H](CC(C)C)C(=O)N[C@@H](Cc1ccccc1)C(=O)N[C@@H](CS)C(=O)N[C@@H](CS)C(=O)N[C@@H](CCCCN)C(=O)N[C@@H](CCSC)C(=O)N[C@@H](CCCNC(=N)N)C(=O)N[C@@H](CC(C)C)C(=O)N[C@@H](CS)C(=O)N[C@@H](C)C(=O)N[C@@H](CS)C(=O)N[C@@H](CCCNC(=N)N)C(=O)N[C@@H](CCCNC(=N)N)C(=O)N[C@@H](CO)C(=O)O)[C@@H](C)CC)[C@@H](C)O [Tr-Eb4] (H-ILRKPEKDDDTSSRIGYLFCCKMRLCACRRS-OH; N-terminus and C-terminus assumed)
Bacterial MIC (K. pneumoniae 4640; 4640, 20 h): >128.000 µg/mL
Bacterial MIC (E. faecium ATCC 19434; ATCC 19434, 20 h): >128.000 µg/mL
Bacterial MIC (P. aeruginosa MRSN 5519; MRSN 5519, 20 h): >128.000 µg/mL
Bacterial MIC (E. faecium ATCC 49224; ATCC 49224, 20 h): >128.000 µg/mL
Bacterial MIC (K. pneumoniae ATCC 13883; ATCC 13883, 20 h): >128.000 µg/mL
Bacterial MIC (A. baumannii ATCC 17978; ATCC 17978, 20 h): >128.000 µg/mL
Bacterial MIC (P. aeruginosa ATCC 27853; ATCC 27853, 20 h): >128.000 µg/mL
Bacterial MIC (E. cloacae ATCC 13047; ATCC 13047, 20 h): >128.000 µg/mL
Bacterial MIC (S. aureus ATCC 25923; ATCC 25923, 20 h): >128.000 µg/mL
Bacterial MIC (E. coli ATCC 43888; ATCC 43888, 20 h): >128.000 µg/mL
Bacterial MIC (E. cloacae ATCC 35549; ATCC 35549, 20 h): >128.000 µg/mL
Bacterial MIC (A. baumannii ATCC 19606; ATCC 19606, 20 h): >128.000 µg/mL
Bacterial MIC (P. aeruginosa PA01 (Si); Si): >128.000 µg/mL
Suggest solvent (solubility) [2]: 1.0mg peptide soluble in 1.0ml DMSO
